Data published in publication PMC8511391, “Optimization of Pichia pastoris Expression System for High-Level Production of Margatoxin” (Frontiers in Pharmacology, 2021).
Bridge positions count the residues as written; N and C are the ends. Ends that are not written are not given here. Peptide text beside a SMILES is read from it.

Key:
[1] = tested on: CD40L expression in CD4^+ TEM cells; test: CD40L (CD154) expression in anti-CD3-stimulated CD4+ TEM lymphocytes (flow cytometry); format: cell-based, human; conditions: for CD40L expression of stimulated, treated cells vs unstimulated cells: TrMgTx 8.5 nM or UrMgTx 5 nM; for CD40L expression of stimulated, treated cells vs unstimulated cells / effect on upregulation of CD40L expression: 24 h; for inhibition of CD40L expression: 24 h anti-CD3 stimulation, three donors, technical duplicates, MFI normalized to stimulated; for effect on upregulation of CD40L expression: ∼100× K d (TrMgTx 8.5 nM, UrMgTx 5 nM), anti-CD3
Description: (§1) The mononuclear cells were isolated from anonymized healthy donors as described earlier. Prior to CD4^+ TEM cells separation, dead cells were removed using the Dead Cell Removal Microbead Kit (Miltenyi Biotec B.V & CO. KG, Bergisch Gladbach, Germany). Untouched CD4^+ TEM lymphocytes were purified through magnetic cell sorting (negative selection) with the CD4^+ Effector Memory T Cell Isolation Kit (Miltenyi Biotec B.V. & Co. KG, Bergisch Gladbach, Germany) according to the manufacturer's protocol.
(§2) For TCR-specific stimulation, anti-human CD3 monoclonal antibodies (clone OKT3, BioLegend, San Diego, CA) were bound to the surface of 24-well cell culture plates at a density of 5 µg/well in phosphate-buffered saline (PBS) overnight at 4°C. Before seeding the cells, the wells were washed twice with PBS to remove the unbound antibodies. The CD4^+ TEM cells were divided into four groups: 1) unstimulated, 2) stimulated, 3) stimulated + TrMgTx (8.5 nM), and 4) stimulated + UrMgTx (5 nM). The cells were seeded at a density of 0.5×10^6 cells/ml per well, and when indicated, the cells were preincubated with the toxins for 5 min prior to the stimulation. The plate was incubated at 37°C in 5% CO2 for 24 h. Each experiment was performed in technical duplicates on three different donors.
(§3) For quantifying the extent of TEM cell stimulation, cells were washed with PBS buffer containing 1% of fetal bovine serum (FBS) and stained with fluorescein isothiocyanate (FITC)–labeled anti-human CD154 (CD40L) antibody (clones 24–31, BioLegend, San Diego, CA) and PerCP/Cyanine5.5–labeled anti-human CD25 (IL2R) antibody (clone BC96, BioLegend) at 4°C for 20 min. Cells were washed with the PBS + 1% FBS buffer and resuspended in 150 µl in PBS + 1% FBS. Samples were measured with NovoCyte 3000 RYB flow cytometer (ACEA Bioscience Inc.), FITC and PerCP/Cyanine5.5 were excited by using blue laser (488 nm), and 530/30 nm and 695/40 nm emission filters were used, respectively. Flow cytometry data were analyzed using FCS Express 6.0 (De Novo Software, Glendale, CA). Briefly, cells were gated on the basis of their FSC and SSC parameters, and then, the histograms corresponding to CD40L and CD25 were plotted as peak-normalized overlays. Mean fluorescent intensities (MFIs) were computed from the histograms and normalized to that of their stimulated (S) but not treated control. The negative (unlabeled) and unstimulated control (US) were always used for comparison.

hKv1.2 [2] = molecular target: T1, hKv1.2 (Homo sapiens, UniProt P16389); test: Binding and unbinding kinetics (wash-in/washout, patch-clamp) on hKv1.2; conditions: for k on: Kv1.2, calculated from averaged τ on and τ off, 100 pM toxin; for τ on: hKv1.2, 100 pM toxin, wash-in; for τ on / τ off: ± SEM; for recovery from block on washout: hKv1.2, toxin-free solution after 100 pM; for τ off: hKv1.2, washout after 100 pM toxin
T1 construct: GFP (from vector pCMV6-GFP); host or cells: CHO cells, transient transfection with Lipofectamine 2000
Description: CHO cells were transiently transfected with the vector pCMV6-GFP (OriGene Technologies, Germany) encoding the human Kv1.2 ion channel using Lipofectamine 2000 (Invitrogen, Carlsbad, CA), following the manufacturer's protocol, and grown under the standard conditions as used previously ([Bagdány et al., 2005]). GFP-positive transfectants were identified with Nikon TE 2000U fluorescence microscope (Nikon, Tokyo, Japan), and currents were recorded after 24 h post transfection.
(§4) Electrophysiological measurements were performed by using the patch-clamp technique in whole-cell or outside-out patch configuration and voltage clamp mode using the Multiclamp 700B amplifier and Axon Digidata1440 digitizer (Molecular Devices, Sunnyvale, CA). Micropipettes were pulled from GC150F-15 borosilicate capillaries (Harvard Apparatus Kent, United Kingdom), resulting in 3–5 MΩ resistance in the bath solution. The extracellular solution contained 145 mM NaCl, 5 mM KCl, 1 mM MgCl2, 2.5 mM CaCl2, 5.5 mM glucose, and 10 mM HEPES, with a pH of 7.35 and an osmolarity between 302 and 308 mOsM/L. When the toxins were dissolved at different molar concentrations in bath solution, it was supplemented with 0.1 mg/ml of BSA. The pipette filling (intracellular) solution consisted of 140 mM KF, 2 mM MgCl2, 1 mM CaCl2, 10 mM HEPES, and 11 mM EGTA, with a pH of 7.22 and an osmolarity of 295 mOsM/L.
(§5) To record the hKv1.3 and hKv1.2 currents, 15- to 200-ms-long depolarization impulses were applied at +50 mV from a holding potential of −120 mV every 15 s. The pClamp 10.1 software package was used to acquire and analyze the measured data. Current traces were low-pass filtered by the analog four-pole Bessel filters of the amplifiers, and the sampling frequency was set at 20 kHz, at least twice that of the filter cutoff frequency. The effect of the toxin at a given molar concentration was calculated as the remaining current fraction (RCF = I/I0, where I0 is the peak current in the absence of the toxin and I is the peak current at equilibrium block at a given toxin concentration). The data points on dose–response curves represent the mean of 3–4 individual measurements. The data points were fitted with a three-parameter [inhibition] vs response model, RCF = Bottom + [Top–Bottom)/(1+([toxin]/K d )], where Top and Bottom values were constrained to 1 and 0, respectively, and [toxin] is the concentration of the toxin. The best fit curve gave K d of the given toxin.
(§6) To examine the effect of additional residues of TrMgTx on binding to the ion channel, the association and dissociation rate constants of both the versions of the toxin were determined for the Kv1.3 channel of the activated human T lymphocytes and the hKv1.2 channel transiently expressed in the CHO cell. Whole-cell currents were recorded after applying the toxin (200 pM for Kv1.3 and 100 pM for Kv1.2) to the extracellular solution until the equilibrium block was achieved (wash-in), and then removed it by perfusing the toxin-free control solution (washout). Peak currents at a time point t [I(t)] were normalized to the peak current in the absence of the toxin [Inorm(t) = I(t)/I0], and these were plotted as a function of time. The association time constant (τ on ) was determined by fitting the data points during the wash-in procedure in the one-phase decay equation: Inorm(t)=((1−RCF)×e^−t/τon)+RCF , with the RCF = I/I0 at the equilibrium block as defined in the Electrophysiology section. The dissociation time constant (τ off ) was determined by fitting the following equation to the data points during the washout procedure: Inorm(t)=RCF+(1−e^−t/τoff).
(§7) The association rate constant (k on ) and dissociation rate constant (k off ) were calculated from the measured time constants, assuming a simple bimolecular interaction between the channel and toxin, and by using the following equations ([Peter et al., 2001]), with τon and τoff defined above, and [toxin] as the toxin concentration: kon=1−(τon×koff)/τon×[toxin], koff=1/τoff.

hKv1.3 [3] = molecular target: T2, hKv1.3 (Homo sapiens, UniProt P22001); test: Binding and unbinding kinetics (wash-in/washout, patch-clamp) on hKv1.3; conditions: for koff: Kv1.3, calculated from averaged τ off; for koff / k on: 3-5 independent experiments; for k on: Kv1.3, calculated from averaged τ on and τ off, 200 pM toxin; for τ on: hKv1.3, 200 pM toxin, wash-in, single exponential; for τ on / τ off: n = 4, ± SEM; for τ off: hKv1.3, washout after 200 pM toxin
T2 construct: endogenous in cells
Description: as §4, §5, §6, §7

[4] = tested on: IL2R (CD25) expression in CD4^+ TEM cells; test: IL2R (CD25) expression in anti-CD3-stimulated CD4+ TEM lymphocytes (flow cytometry); format: cell-based, human; conditions: for inhibition of IL2R expression: 24 h anti-CD3 stimulation, three donors, technical duplicates, MFI normalized to stimulated; for effect on upregulation of IL2R expression: ∼100× K d (TrMgTx 8.5 nM, UrMgTx 5 nM), 24 h, anti-CD3
Description: as §1, §2, §3

hKv1.2 [5] = molecular target: T1, hKv1.2; test: Patch-clamp block of hKv1.2 current (dose-response / equilibrium block) in transfected CHO cells; format: cell-based; conditions: for block of whole-cell current at equilibrium: 100 pM toxin, hKv1.2, CHO cells
Description: (§8) Electrophysiological measurements were performed by using the patch-clamp technique in whole-cell or outside-out patch configuration and voltage clamp mode using the Multiclamp 700B amplifier and Axon Digidata1440 digitizer (Molecular Devices, Sunnyvale, CA). Micropipettes were pulled from GC150F-15 borosilicate capillaries (Harvard Apparatus Kent, United Kingdom), resulting in 3–5 MΩ resistance in the bath solution. The extracellular solution contained 145 mM NaCl, 5 mM KCl, 1 mM MgCl2, 2.5 mM CaCl2, 5.5 mM glucose, and 10 mM HEPES, with a pH of 7.35 and an osmolarity between 302 and 308 mOsM/L. When the toxins were dissolved at different molar concentrations in bath solution, it was supplemented with 0.1 mg/ml of BSA. The pipette filling (intracellular) solution consisted of 140 mM KF, 2 mM MgCl2, 1 mM CaCl2, 10 mM HEPES, and 11 mM EGTA, with a pH of 7.22 and an osmolarity of 295 mOsM/L.
Pharmacological activity of both versions of rMgTx was evaluated by studying their effect on the hKv1.2 and hKv1.3 ion channels. […] A custom-built perfusion system was used to apply toxins at a very small perfusion rate of 200 µl/min. […]

hKv1.3 [6] = molecular target: T2, hKv1.3; format: cell-based; conditions: for inhibition of whole-cell current at block equilibrium: 200 pM toxin, hKv1.3
Description: The human venous blood from anonymized healthy donors was obtained from a blood bank. The peripheral blood mononuclear cells were isolated through Histopaque1077 (Sigma-Aldrich Hungary, Budapest, Hungary) density gradient centrifugation. Cells obtained were resuspended in RPMI 1640 medium containing 10% fetal calf serum (Sigma-Aldrich), 100 µg/ml penicillin, 100 µg/ml streptomycin, and 2 mM L glutamine, seeded in a 24-well culture plate at a density of 5 x 10^5 cells per ml, and grown in a 5% CO2 incubator at 37°C for 2–5 days. Phytohemagglutinin A (Sigma-Aldrich) was added in 5, 7, and 10 µg/ml concentrations to the medium to boost the potassium ion channel expression.
as §8
To record the hKv1.3 and hKv1.2 currents, 15- to 200-ms-long depolarization impulses were applied at +50 mV from a holding potential of −120 mV every 15 s. The pClamp 10.1 software package was used to acquire and analyze the measured data. Current traces were low-pass filtered by the analog four-pole Bessel filters of the amplifiers, and the sampling frequency was set at 20 kHz, at least twice that of the filter cutoff frequency. The effect of the toxin at a given molar concentration was calculated as the remaining current fraction (RCF = I/I0, where I0 is the peak current in the absence of the toxin and I is the peak current at equilibrium block at a given toxin concentration). The data points on dose–response curves represent the mean of 3–4 individual measurements. […]
Pharmacological activity of both versions of rMgTx was evaluated by studying their effect on the hKv1.2 and hKv1.3 ion channels. The hKv1.2 current was recorded in CHO cells, which heterologously expressed the hKv1.2 ion channel, and hKv1.3 current was recorded in the human peripheral blood lymphocytes. […]

Kv1.3 = conditions: cited from earlier work
Description: Voltage-gated potassium (Kv) channels are present in a variety of cells and tissues where they regulate multiple physiological processes, including cardiac function, neural excitability, muscle contraction, cell proliferation, cell volume control, and hormonal secretion ([Coetzee et al., 1999]; [Giangiacomo et al., 2004]). […] Previous studies report the production of recombinant MgTx (rMgTx) in E. coli and P. ... || Pharmacological activity of both versions of rMgTx was evaluated by studying their effect on the hKv1.2 and hKv1.3 ion channels. The hKv1.2 current was recorded in CHO cells, which heterologously expressed the hKv1.2 ion channel, and hKv1.3 current was recorded in the human peripheral blood lymphocytes. The stimulation of the hKv1.3 channel expression (activation of isolated mononuclear cells by PHA, see the Materials and Methods section) and recording conditions (no Ca^2+ in the pipette to elicit Ca^2+-activated K^+ channels) guaranteed that the current recorded in these cells is K^+ current ... || (+ 2 further places)

T1 sequence (P16389 whole entry): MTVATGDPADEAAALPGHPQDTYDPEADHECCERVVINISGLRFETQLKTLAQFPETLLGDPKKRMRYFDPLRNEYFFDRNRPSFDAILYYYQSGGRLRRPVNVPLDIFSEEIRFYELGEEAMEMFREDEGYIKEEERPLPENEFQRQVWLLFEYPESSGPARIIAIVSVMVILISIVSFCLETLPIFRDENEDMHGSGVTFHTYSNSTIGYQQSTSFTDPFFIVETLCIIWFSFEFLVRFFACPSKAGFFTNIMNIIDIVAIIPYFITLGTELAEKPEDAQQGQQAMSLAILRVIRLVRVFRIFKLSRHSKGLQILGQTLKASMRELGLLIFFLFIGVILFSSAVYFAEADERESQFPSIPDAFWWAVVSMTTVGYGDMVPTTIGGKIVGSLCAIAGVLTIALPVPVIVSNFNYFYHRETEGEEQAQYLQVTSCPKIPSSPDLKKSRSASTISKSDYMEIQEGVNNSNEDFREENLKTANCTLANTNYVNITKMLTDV
T2 sequence (P22001 whole entry): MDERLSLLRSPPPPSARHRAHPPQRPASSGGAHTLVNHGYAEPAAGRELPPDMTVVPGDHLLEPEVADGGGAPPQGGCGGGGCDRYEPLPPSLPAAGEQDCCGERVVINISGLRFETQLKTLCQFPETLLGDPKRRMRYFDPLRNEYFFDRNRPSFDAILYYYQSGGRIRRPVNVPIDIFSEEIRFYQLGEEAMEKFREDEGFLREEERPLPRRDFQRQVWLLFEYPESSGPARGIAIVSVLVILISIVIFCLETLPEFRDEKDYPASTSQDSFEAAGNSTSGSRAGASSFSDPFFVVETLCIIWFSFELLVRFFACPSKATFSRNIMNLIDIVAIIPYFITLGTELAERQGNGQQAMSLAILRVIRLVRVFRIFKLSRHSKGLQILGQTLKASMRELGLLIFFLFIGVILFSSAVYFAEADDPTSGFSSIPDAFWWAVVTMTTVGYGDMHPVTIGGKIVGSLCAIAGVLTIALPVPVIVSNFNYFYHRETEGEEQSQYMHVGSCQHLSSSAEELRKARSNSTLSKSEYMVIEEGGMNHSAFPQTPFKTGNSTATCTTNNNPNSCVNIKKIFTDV

Row | Compound | CD40L expression of stimulated, treated cells vs unstimulated cells [1] | effect on upregulation of CD40L expression [1] | k on (hKv1.2 [2]; 3-5 independent experiments) | τ on (hKv1.2 [2]) | recovery from block on washout (hKv1.2 [2]) | τ off (hKv1.2 [2]) | koff (hKv1.3 [3]) | k on (hKv1.3 [3]) | τ on (hKv1.3 [3]) | τ off (hKv1.3 [3]) | effect on upregulation of IL2R expression [4] | block of whole-cell current at equilibrium (hKv1.2 [5]) | inhibition of whole-cell current at block equilibrium (hKv1.3 [6]) | further results
1 | EFHHHHHHLQIEGRTIINVKCTSPKQCLPPCKAQFGQSAGAKCMNGKCKCYPH (disulfide 21-43, 27-48, 31-50) [TrMgTx] | comparable to that of unstimulated cells | significantly reduced | 3.05e+07 M⁻¹ s⁻¹ | 202 ± 2.3 s | slow but full recovery | 532 ± 69 s | 0.00179 s⁻¹ | 2.14e+07 M⁻¹ s⁻¹ | 168 ± 19 s | 568 ± 84 s | significantly reduced | about 60% | ~70% | inhibition of CD40L expression ([1]; TrMgTx 8.5 nM): ~36%; koff (hKv1.2 [2]; Kv1.2, calculated from averaged τ off, 3-5 independent experiments): 0.0019 s⁻¹; association rate, fold lower than UrMgTx (hKv1.2 [2]; hKv1.2): ~1.6 fold; association rate, fold lower than UrMgTx (hKv1.3 [3]; hKv1.3): ~1.6 fold; inhibition of IL2R expression ([4]; TrMgTx 8.5 nM): ~39%; potency relative to UrMgTx (hKv1.2 [5]; hKv1.2, dose-response): nearly fivefold less potent; potency relative to UrMgTx (hKv1.3 [6]; hKv1.3, dose-response): slightly less potent
2 | CC[N+](CC)(CC)CC [tetraethylammonium, reference compound] |  |  |  |  |  |  |  |  |  |  |  |  |  | Kd (Kv1.3): 10 mM; reduction in peak current, positive control (hKv1.3 [6]): Around 50%
3 | CC[C@H](C)[C@H](NC(=O)[C@@H](N)[C@@H](C)O)C(=O)N[C@H](C(=O)N[C@@H](CC(N)=O)C(=O)N[C@H](C(=O)N[C@@H](CCCCN)C(=O)N[C@H]1CSSC[C@@H]2NC(=O)[C@H](CCCCN)NC(=O)[C@H](C)NC(=O)CNC(=O)[C@H](C)NC(=O)[C@H](CO)NC(=O)[C@H](CCC(N)=O)NC(=O)CNC(=O)[C@H](Cc3ccccc3)NC(=O)[C@H](CCC(N)=O)NC(=O)[C@H](C)NC(=O)[C@H](CCCCN)NC(=O)[C@@H]3CSSC[C@@H](C(=O)N[C@@H](Cc4ccc(O)cc4)C(=O)N4CCC[C@H]4C(=O)N[C@@H](Cc4c[nH]cn4)C(=O)O)NC(=O)[C@H](CCCCN)NC(=O)[C@H](CSSC[C@H](NC(=O)[C@H](CCC(N)=O)NC(=O)[C@H](CCCCN)NC(=O)[C@@H]4CCCN4C(=O)[C@H](CO)NC(=O)[C@H]([C@@H](C)O)NC1=O)C(=O)N[C@@H](CC(C)C)C(=O)N1CCC[C@H]1C(=O)N1CCC[C@H]1C(=O)N3)NC(=O)[C@H](CCCCN)NC(=O)CNC(=O)[C@H](CC(N)=O)NC(=O)[C@H](CCSC)NC2=O)C(C)C)[C@@H](C)CC [UrMgTx] (H-TIINVKCTSPKQCLPPCKAQFGQSAGAKCMNGKCKCYPH-OH; disulfide 7-29, 13-34, 17-36; N-terminus and C-terminus assumed) | comparable to that of unstimulated cells | significantly reduced | 4.62e+07 M⁻¹ s⁻¹ | 191 ± 12 s | slow and partial recovery | 1308 ± 351 s | 0.00179 s⁻¹ | 3.43e+07 M⁻¹ s⁻¹ | 116 ± 10 s | 560 ± 28 s | significantly reduced | ~90% | ~80% | inhibition of CD40L expression ([1]; UrMgTx 5 nM): ~45%; k off compared with TrMgTx (hKv1.2 [2]; hKv1.2, unpaired t test, n = 3-4, p < 0.001): substantially lower; k on compared with TrMgTx (hKv1.2 [2]; hKv1.2, unpaired t test, n = 3-4, p < 0.01): slightly higher; k on compared with TrMgTx (hKv1.3 [3]; hKv1.3, unpaired t test, n = 4, p < 0.001): significantly higher; inhibition of IL2R expression ([4]; UrMgTx 5 nM): ~45%
4 | charybdotoxin [reference compound] |  |  |  |  |  |  |  |  |  |  |  |  |  | reduction in peak current, positive control (hKv1.2 [5]; 14 nM charybdotoxin, hKv1.2, data not shown): Around 50%
